Numbered stars: 1 amine (or outer) side, 2 acyl side, 3 side chain; on linkers, the order of the positions; unused ones are H or OH. Side chains are listed from the residue outwards. Peptide text beside a SMILES is read from it. * marks the point of attachment. C18 diacid = O=C(O)CCCCCCCCCCCCCCCCC(=O)*; γGlu = O=C(O)[C@H](CCC(=O)[*:2])N[*:1]; Fumaroyl = O=C(O)/C=C/C(=O)*; Lauroyl = CCCCCCCCCCCC(=O)*; AEEA = NCCOCCOCC(=O)O
Tests used:
BDNF [1] = assay: BDNF protein expression in infarcted brain tissue of tMCAO mice (ELISA); assay type: in vivo, C57/6J mice; settings: for BDNF: 3 times (D1, D3, D6), infarcted brain tissue after D14; for expression level of BDNF protein compared with the normal saline group: tMCAO mice
Experimental: (§1) Fifty-one male C57/6J mice, aged 10-12 weeks, weighing 25-30g, were housed for at least 2 days prior to the experiment to adapt to the environment (SPF Biotech). A mouse model of tMCAO was established. The mice were anesthetized with isoflurane. Their body temperature was controlled by a thermostatic blanket and monitored and maintained at 37±0.5°C. A middle incision was made in the skin on the mouse skull, the skin was pulled outward, and a bendable microneedle tip was fixed to the surface of the left parietal bone of the mouse skull. A middle incision on the neck was made to separate the right common carotid artery (CCA), external carotid artery (ECA) and internal carotid artery (ICA). According to the method of Longa (Longa et al., 1989), a silicone rubber-coated suture (RWD Life Science, suture end diameter: 0.22 mm-0.23 mm, MSMC23B120PK50) was introduced through an external carotid artery incision surgery and was slowly advanced through the internal carotid artery towards the origin of the middle cerebral artery. To ensure a sustained and successful occlusion of the middle cerebral artery, we monitored local cerebral blood flow of all stroke animals with a laser speckle flowmeter (generally, the blood flow can be reduced by 40-60% after stabilized). The suture was removed 45 min after the insertion for modeling, and the incision was sutured. Afterward, 1 mL of 37°C warm saline was injected subcutaneously, and the mice were placed on a heating pad until recovery. To alleviate pain, the mice were injected subcutaneously with Tilidine after awakening from anesthesia.
(§2) Successfully modeled C57 tMCAO mice were randomly assigned into three groups: a normal saline group, a 30µg/Kg BX229-Na administration group, and a 100µg/Kg BX229-Na administration group. Each group was administered once subcutaneously in the neck 4.5 hours after occlusion (D1), and was administered once more at the same sites and at the same time points on D3 and D6. A sham group included 6 animals. 2 mL/kg was administrated subcutaneously in the neck. Garcia JH scoring was made on D7 and D14 after administration. After the completion of the scoring on D14, the mice were euthanized and harvested for infarcted brain tissues, to extract total proteins. Changes in protein markers VEGF-A and BDNF in each experimental group were detected by ELISA. Table 19: Experimental Grouping and Dosing Regimen

VEGF-A = VEGF-A protein expression in infarcted brain tissue of tMCAO mice (ELISA); assay type: in vivo, C57/6J mice; settings: for VEGF-A: 3 times s.c. (D1, D3, D6), brain tissue after D14
Experimental: as §1, §2

BDNF [2] = assay: BDNF protein expression in infarcted brain tissue, mouse model of tMCAO (ELISA); assay type: in vivo, C57/6J mice
Experimental: Fifty-one male C57/6J mice, aged 10-12 weeks, weighing 25-30g, were housed for at least 2 days prior to the experiment to adapt to the environment (SPF Biotech). A mouse model of tMCAO was established. The mice were anesthetized with isoflurane. Their body temperature was controlled by a thermostatic blanket and monitored and maintained at 37±0.5°C. A middle incision was made in the skin on the mouse skull, the skin was pulled outward, and a bendable microneedle tip was fixed to the surface of the left parietal bone of the mouse skull. A middle incision on the neck was made to separate the right common carotid artery (CCA), external carotid artery (ECA) and internal carotid artery (ICA). […] To ensure a sustained and successful occlusion of the middle cerebral artery, we monitored local cerebral blood flow of all stroke animals with a laser speckle flowmeter (generally, the blood flow can be reduced by 40-60% after stabilized). […]
Successfully modeled C57 tMCAO mice were randomly assigned into three groups: a normal saline group, a 30µg/Kg BX229-Na administration group, and a 100µg/Kg BX229-Na administration group. […] Changes in protein markers VEGF-A and BDNF in each experimental group were detected by ELISA. […]

rat model of pMACO = assay: Rotarod test in rat model of pMACO; assay type: in vivo, SD rats; settings: IRL1620 5 µg/Kg, BX34 7 µg/Kg, BX48 5 µg/Kg, administered 3 times (2, 4, 6 hours after modeling), n=10
Source text: Male SD rats weighing 280-300 g were used and acclimated for at least 3 days. Focal cerebral ischemia was induced by middle cerebral artery occlusion with a suture method under isoflurane anesthesia. The animals were placed in a secure supine position, and a midline incision was made to expose the right common carotid artery, external carotid artery, and internal carotid artery. A 4.0 monofilament nylon suture was advanced from the external carotid artery toward the internal carotid artery lumen until resistance was felt ( ~ 20 mm), indicating middle cerebral artery occlusion. The nylon filament was allowed to stay in place to create a permanent model of focal cerebral ischemia. Successfully modeled rats were randomly assigned to four groups: a solvent (normal saline) group (n=10), a 7 µg/Kg BX-34 group (n=10), a 5 µg/Kg BX-48 group (n=10), and a 5 µg/Kg IRL1620 group (n=10). Each group was administered once at 2 hours, 4 hours, and 6 hours, respectively, after modeling, for a total of three administrations. Grip strength was measured before administration and at 24 hours and on D3 and D7 after administration. A rotarod test and a foot fault test were performed before administration and at 24 hours and day 7 after administration. During the rotarod test, time and distance were recorded, and ratios of the measurement at 24 hours and the measurement at D7 to the pretest measurement were used as analysis indicators. The specific method for the foot fault test was as follows. The rats were placed on an elevated grid floor (29×29 cm, grid opening: 3 cm^2) for 2 minutes, and the number of foot faults (when a forelimb fell through the grid) and the total steps were recorded. % Foot fault = (the number of forelimb faults/the total number of forelimb steps) × 100.

SMILES | BDNF (BDNF [1]; 30 µg/Kg subcutaneously) [pg/mL] | BDNF (BDNF [1]; 100 µg/Kg subcutaneously) [pg/mL] | expression level of BDNF protein compared with the normal saline group (BDNF [1]; 30µg/Kg three-dose group) | expression level of BDNF protein compared with the normal saline group (BDNF [1]; 100µg/Kg three-dose group) | expression level of VEGF-A protein compared with the normal saline group (VEGF-A; 30µg/Kg three-dose group) | VEGF-A (VEGF-A; 30 µg/Kg) [pg/mL] | expression level of VEGF-A protein compared with the normal saline group (VEGF-A; 100µg/Kg three-dose group) | VEGF-A (VEGF-A; 100 µg/Kg) [pg/mL] | expression level of BDNF protein compared with the normal saline group (BDNF [2]; 30µg/Kg three-dose group) | expression level of BDNF protein compared with the normal saline group (BDNF [2]; 100µg/Kg three-dose group) | Rotarod Test 7D/pretest (%) Distance, m (rat model of pMACO; 7D relative to pretest) | Rotarod Test 7D/pretest (%) Time, s (rat model of pMACO; 7D relative to pretest) | Rotarod Test 7D/pretest (%) Velocity (rat model of pMACO; 7D relative to pretest) | Rotarod Test 24h/pretest (%) Distance, m (rat model of pMACO; 24h relative to pretest) | Rotarod Test 24h/pretest (%) Time, s (rat model of pMACO; 24h relative to pretest) | Rotarod Test 24h/pretest (%) Velocity (rat model of pMACO; 24h relative to pretest)
CCCCCCCCCCCC(=O)N[C@@H](CCC(=O)NCCOCCOCC(=O)NCCCC[C@H](NC(=O)[C@H](Cc1c[nH]cn1)NC(=O)[C@H](C)NC(=O)[C@H](Cc1ccccc1)NC(=O)[C@H](Cc1ccc(O)cc1)NC(=O)[C@@H](NC(=O)[C@H](C)NC(=O)[C@H](CCC(=O)O)NC(=O)[C@H](CCC(=O)O)NC(=O)[C@H](CC(=O)O)NC(=O)/C=C/C(=O)O)C(C)C)C(=O)N[C@@H](CC(=O)O)C(=O)N[C@H](C(=O)N[C@H](C(=O)N[C@@H](Cc1c[nH]c2ccccc12)C(=O)O)[C@@H](C)CC)C(C)C)C(=O)O [BX229-Na] (Fumaroyl-DEEAVYFAHK([AEEA-γGlu-Lauroyl])DVIW-OH) | 1103 ± 582 | 1334 ± 665 | higher | higher | higher | 441 ± 102 | significantly different | 562 ± 56 | higher than that in the normal saline group | higher than that in the normal saline group | – | – | – | – | – | –
CC[C@H](C)[C@H](NC(=O)[C@H](CC(=O)O)NC(=O)[C@H](CCCCNC(=O)COCCOCCNC(=O)COCCOCCNC(=O)CC[C@H](NC(=O)CCCCCCCCCCCCCCCCC(=O)O)C(=O)O)NC(=O)[C@H](Cc1c[nH]cn1)NC(=O)[C@H](C)NC(=O)[C@H](Cc1ccccc1)NC(=O)[C@H](Cc1ccc(O)cc1)NC(=O)[C@@H](NC(=O)[C@H](C)NC(=O)[C@H](CCC(=O)O)NC(=O)[C@H](CCC(=O)O)NC(=O)[C@H](CC(=O)O)NC(=O)/C=C/C(=O)O)C(C)C)C(=O)N[C@H](C(=O)N[C@@H](Cc1c[nH]c2ccccc12)C(=O)O)[C@@H](C)CC [BX-34] (Fumaroyl-DEEAVYFAHK([AEEA-AEEA-γGlu-C18 diacid])DIIW-OH) | – | – | – | – | – | – | – | – | – | – | 49.60%±49.48% | 65.5%±29.94% | 62.27%±34.12% | 28.25%±44.00% | 38.34%±38.08% | 39.09%±35.03%

— EP4702986A1, “POLYPEPTIDE AND USE THEREOF” (Biocells (Beijing) Biotech Co., Ltd., priority 2023, dated 2024)
